# Results taken from patent publication US10370343B2, “[6,6] Fused bicyclic HDAC8 inhibitors” (FORMA Therapeutics, Inc., priority 2015, dated 2019).
# How the values were obtained:
# [1] = molecular target: T1, Recombinant N-terminal GST tag full-length human HDAC8 (Homo sapiens, UniProt Q9BY41); assay: HDAC8 probe binding assay, time resolved fluorescence (TRF) format; conditions: compounds grouped by IC50 range (Table 2)
# T1 construct: Recombinant N-terminal GST tag full-length human HDAC8; purchased SignalChem H90-30G-1000; host or cells: baculovirus in Sf9 insect cells
# T1 sequence (Q9BY41 1-377): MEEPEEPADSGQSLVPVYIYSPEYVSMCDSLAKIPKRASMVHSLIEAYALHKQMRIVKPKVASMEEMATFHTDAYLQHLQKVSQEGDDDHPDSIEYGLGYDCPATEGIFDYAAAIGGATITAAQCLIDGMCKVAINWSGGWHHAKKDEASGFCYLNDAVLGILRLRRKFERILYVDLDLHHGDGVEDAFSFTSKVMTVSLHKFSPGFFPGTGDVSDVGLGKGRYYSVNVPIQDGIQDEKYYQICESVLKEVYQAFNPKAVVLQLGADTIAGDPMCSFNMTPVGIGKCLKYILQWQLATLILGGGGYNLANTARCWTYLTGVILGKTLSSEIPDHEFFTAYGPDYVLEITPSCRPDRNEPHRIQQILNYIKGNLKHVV
# Outline: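 Probe-binding TRF assay using full-length N-GST human HDAC8 expressed in baculovirus-infected Sf9 cells, incubated 16 h at room temperature and read at 340 nm excitation, 485/535 nm emission. Percent inhibition was normalised to no-enzyme and DMSO controls. IC50 was obtained by 4-parameter logistic fit.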
# [2] = molecular target: T2, Full length human recombinant HDAC8 protein (Homo sapiens, UniProt Q9BY41); assay: In vitro histone deacetylase assay: enzymatic HDAC8 electrophoretic mobility shift assay; type: biochemical; conditions: electrophoretic mobility shift assay; enzyme 1 nM; 2 μM fluorescently labeled peptide substrate RHKK(Ac)-NH2; 25° C.; 12 concentrations; read-out: HDAC8 IC50
# T2 construct: Full length human recombinant HDAC8 protein was expressed in baculoviral system; made in house
# T2 sequence (Q9BY41 1-377): T1 sequence (Q9BY41 1-377)
SMILES,IC50 [1] [nM],IC50 [2] [nM]
"O=C(NO)c1ccc2c(c1)N(Cc1ccc(OC(F)(F)F)cc1)C(=O)CO2 [Compound I-36, N-hydroxy-3-oxo-4-(4-(trifluoromethoxy)benzyl)-3,4-dihydro-2H-benzo[b][1,4]oxazine-6-carboxamide]",≤ 25,< 25
"O=C(NO)c1ccc2c(c1)N(c1ccccc1)C(=O)CO2 [Compound I-357, N-hydroxy-3-oxo-4-phenyl-3,4-dihydro-2H-benzo[b][1,4]oxazine-6-carboxamide]",25 to 100,100 to 1000
"COc1ccc(CN2C(=O)C(C(C)(C)C)Oc3ccc(C(=O)NO)cc32)cc1 (stereo not drawn) [Compound I-103, 2-(tert-butyl)-N-hydroxy-4-(4-methoxybenzyl)-3-oxo-3,4-dihydro-2H-benzo[b][1,4]oxazine-6-carboxamide]",≤ 25,< 25
"COc1ccc(CN2C(=O)C(C)(C)Oc3ccc(C(=O)NO)cc32)cc1 [Compound I-98, N-hydroxy-4-(4-methoxybenzyl)-2,2-dimethyl-3-oxo-3,4-dihydro-2H-benzo[b][1,4]oxazine-6-carboxamide]",25 to 100,25 to 100
"O=C(NO)c1ccc2c(c1)N(Cc1cccc(F)c1)C(=O)CO2 [Compound I-33, 4-(3-fluorobenzyl)-N-hydroxy-3-oxo-3,4-dihydro-2H-benzo[b][1,4]oxazine-6-carboxamide]",≤ 25,25 to 100
"O=C(NO)c1ccc2c(c1)N(Cc1ccc3nonc3c1)C(=O)CO2 [Compound I-62, 4-(benzo[c][1,2,5]oxadiazol-5-ylmethyl)-N-hydroxy-3-oxo-3,4-dihydro-2H-benzo[b][1,4]oxazine-6-carboxamide]",25 to 100,< 25
"CC1(C)Oc2ccc(C(=O)NO)cc2N(Cc2ccc(Cl)cc2F)C1=O [Compound I-161, 4-(4-chloro-2-fluorobenzyl)-N-hydroxy-2,2-dimethyl-3-oxo-3,4-dihydro-2H-benzo[b][1,4]oxazine-6-carboxamide]",≤ 25,< 25
"O=C(NO)c1ccc2c(c1)N(Cc1ccccc1F)CCO2 [Compound I-27, 4-(2-fluorobenzyl)-N-hydroxy-3,4-dihydro-2H-benzo[b][1,4]oxazine-6-carboxamide]",25 to 100,< 25
"O=C(NO)c1ccc2c(c1)N(CCOCC1CC1)C(=O)CO2 [Compound I-50, 4-(2-(cyclopropylmethoxy)ethyl)-N-hydroxy-3-oxo-3,4-dihydro-2H-benzo[b][1,4]oxazine-6-carboxamide]",25 to 100,25 to 100
"COc1ccc(CN2C(=O)C(C)(C)Oc3ccc(C(=O)NO)cc32)c(F)c1 [Compound I-160, 4-(2-fluoro-4-methoxybenzyl)-N-hydroxy-2,2-dimethyl-3-oxo-3,4-dihydro-2H-benzo[b][1,4]oxazine-6-carboxamide]",≤ 25,< 25
"CCOc1c(F)cc(CN2C(=O)COc3ccc(C(=O)NO)cc32)cc1F [Compound I-250, 4-(4-ethoxy-3,5-difluorobenzyl)-N-hydroxy-3-oxo-3,4-dihydro-2H-benzo[b][1,4]oxazine-6-carboxamide]",25 to 100,25 to 100
"COc1ccc(CN2C(=O)COc3ccc(C(=O)NO)cc32)cc1Cl [Compound I-243, 4-(3-chloro-4-methoxybenzyl)-N-hydroxy-3-oxo-3,4-dihydro-2H-benzo[b][1,4]oxazine-6-carboxamide]",≤ 25,< 25
"Cc1ccc2nc(CN3C(=O)C(C)(C)Oc4ccc(C(=O)NO)cc43)oc2c1 [Compound I-292, N-hydroxy-2,2-dimethyl-4-((6-methylbenzo[d]oxazol-2-yl)methyl)-3-oxo-3,4-dihydro-2H-benzo[b][1,4]oxazine-6-carboxamide]",25 to 100,25 to 100
"CCCCN1C(=O)COc2ccc(C(=O)NO)cc21 [Compound I-45, 4-butyl-N-hydroxy-3-oxo-3,4-dihydro-2H-benzo[b][1,4]oxazine-6-carboxamide]",25 to 100,25 to 100
"CCC1Oc2ccc(C(=O)NO)cc2N(Cc2ccc(OC)cc2)C1=O (stereo not drawn) [Compound I-99, 2-ethyl-N-hydroxy-4-(4-methoxybenzyl)-3-oxo-3,4-dihydro-2H-benzo[b][1,4]oxazine-6-carboxamide]",≤ 25,< 25
"O=C(NO)c1ccc2c(c1)N(Cc1ccc(Cl)cc1)C(=O)CO2 [Compound I-64, 4-(4-chlorobenzyl)-N-hydroxy-3-oxo-3,4-dihydro-2H-benzo[b][1,4]oxazine-6-carboxamide]",≤ 25,< 25
"O=C(NO)c1ccc2c(c1)N(Cc1nc3cc(Cl)ccc3o1)C(=O)CO2 [Compound I-272, 4-((5-chlorobenzo[d]oxazol-2-yl)methyl)-N-hydroxy-3-oxo-3,4-dihydro-2H-benzo[b][1,4]oxazine-6-carboxamide]",≤ 25,< 25
"O=C(NO)c1ccc2c(c1)N(Cc1cc(Cl)ccc1Cl)C(=O)CO2 [Compound I-252, 4-(2,5-dichlorobenzyl)-N-hydroxy-3-oxo-3,4-dihydro-2H-benzo[b][1,4]oxazine-6-carboxamide]",≤ 25,< 25
"CN1CCCC[C@H]1CN1C(=O)COc2ccc(C(=O)NO)cc21 (stereo in doubt) [Compound I-47, N-hydroxy-4-((1-methylpiperidin-2-yl)methyl)-3-oxo-3,4-dihydro-2H-benzo[b][1,4]oxazine-6-carboxamide]",> 1000,> 1000
"Cc1ccc2oc(CN3C(=O)COc4ccc(C(=O)NO)cc43)nc2c1 [Compound I-286, N-hydroxy-4-((5-methylbenzo[d]oxazol-2-yl)methyl)-3-oxo-3,4-dihydro-2H-benzo[b][1,4]oxazine-6-carboxamide]",25 to 100,25 to 100
"COc1ccc(CN2C(=O)C(C)Oc3ccc(C(=O)NO)cc32)cc1 (stereo not drawn) [Compound I-151, N-hydroxy-4-(4-methoxybenzyl)-2-methyl-3-oxo-3,4-dihydro-2H-benzo[b][1,4]oxazine-6-carboxamide]",≤ 25,< 25
"CC1Oc2ccc(C(=O)NO)cc2N(Cc2ccc(S(C)(=O)=O)cc2)C1=O (stereo not drawn) [Compound I-152, N-hydroxy-2-methyl-4-(4-(methylsulfonyl)benzyl)-3-oxo-3,4-dihydro-2H-benzo[b][1,4]oxazine-6-carboxamide]",≤ 25,< 25
"O=C(NO)c1ccc2c(c1)N(CCc1ccccc1)C(=O)CO2 [Compound I-58, N-hydroxy-3-oxo-4-phenethyl-3,4-dihydro-2H-benzo[b][1,4]oxazine-6-carboxamide]",25 to 100,25 to 100
"O=C(NO)c1ccc2c(c1)N(Cc1ccc(-c3ncco3)cc1)C(=O)CO2 [Compound I-221, N-hydroxy-4-(4-(oxazol-2-yl)benzyl)-3-oxo-3,4-dihydro-2H-benzo[b][1,4]oxazine-6-carboxamide]",≤ 25,< 25
"O=C(NO)c1ccc2c(c1)N(Cc1csc(C3CC3)n1)CCO2 [Compound I-20, 4-((2-cyclopropylthiazol-4-yl)methyl)-N-hydroxy-3,4-dihydro-2H-benzo[b][1,4]oxazine-6-carboxamide]",> 1000,100 to 1000
"COc1ccc(CN2C(=O)COc3ccc(C(=O)NO)cc32)cc1C [Compound I-244, N-hydroxy-4-(4-methoxy-3-methylbenzyl)-3-oxo-3,4-dihydro-2H-benzo[b][1,4]oxazine-6-carboxamide]",25 to 100,< 25
"O=C(NO)c1ccc2c(c1)N(Cc1cc(C(F)(F)F)ccc1Cl)C(=O)CO2 [Compound I-259, 4-(2-chloro-5-(trifluoromethyl)benzyl)-N-hydroxy-3-oxo-3,4-dihydro-2H-benzo[b][1,4]oxazine-6-carboxamide]",≤ 25,< 25
